Test results reported in patent publication US10017767B2, “Targets in multiple myeloma and other disorders” (FONDAZIONE CENTRO SAN RAFFAELE, priority 2012, dated 2018).

Experiments:
STK4 = target: T1, STK4 (Homo sapiens, UniProt Q13043); experiment: STK4 biochemical kinase inhibition
T1 sequence (Q13043 1-487): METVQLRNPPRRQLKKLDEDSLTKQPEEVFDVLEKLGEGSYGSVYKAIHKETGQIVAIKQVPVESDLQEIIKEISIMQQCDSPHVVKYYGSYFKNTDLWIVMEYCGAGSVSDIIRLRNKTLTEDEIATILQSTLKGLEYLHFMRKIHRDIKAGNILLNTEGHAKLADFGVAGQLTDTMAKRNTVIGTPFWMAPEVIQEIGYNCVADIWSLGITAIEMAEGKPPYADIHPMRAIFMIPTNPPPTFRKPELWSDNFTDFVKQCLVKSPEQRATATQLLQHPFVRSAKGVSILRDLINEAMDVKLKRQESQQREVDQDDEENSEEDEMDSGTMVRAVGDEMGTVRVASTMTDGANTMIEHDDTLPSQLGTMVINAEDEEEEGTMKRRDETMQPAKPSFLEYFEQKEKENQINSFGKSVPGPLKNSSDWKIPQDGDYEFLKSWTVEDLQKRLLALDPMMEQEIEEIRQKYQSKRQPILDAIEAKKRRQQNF

MM cell lines = experiment: Cell growth in a large panel of MM cell lines; format: cell-based
YAP1 = YAP1 levels in MM cells after treatment; format: cell-based
Method: (§1) MM cells were harvested and lysed using lysis buffer: 50 mMTris-HCl (pH 7.4), 150 mM NaCl, 1% NP-40, 5 mM EDTA, 5 mM NaF, 2 mM Na3VO4, 1 mM PMSF, 5 μg/mL leupeptine, and 5 μg/mL aprotinin. Nuclear extracts were prepared using Nuclear Extraction Kit (Panomics). Cell lysates were subjected to sodium dodecyl sulfate-polyacrylamide gel electrophoresis SDS-PAGE, transferred to nitrocellulose membranes, and immunoblotted with different antibodies: ATM, phospho-ATM (Ser1981), ATR, phospho-ATR (Ser428), CHK2, phospho-CHK2 (Thr68), CHK1, phospho-CHK1 (Ser296), p21, p53, phospho-p53 (ser127), STK4, LATS1, phospho-LATS1 (Ser909), phospho-ABL1 (Thr735), cleaved caspase 3, cleaved PARP, histone H3, SAPK/JNK, phospho-SAPK/JNK (Thr183/Tyr185), GM130, GAPDH, and α-tubulin (Cell Signaling); STK4, Nuclear Matrix Protein p84 (Abeam), p73 (BD), phospho-H2A.X (Ser139) (Millipore); as well as ABL1, BAX, Puma, Noxa, actin and nucleolin (Santa Cruz Biotechnology).

[1] = tested on: ALL (Jurkat) and AML (OCI/AML3) cell lines; experiment: YAP1 levels, cell number and apoptosis in ALL and AML cell lines; format: cell-based
[2] = tested on: KMS-20 cell line, with YAP1 deletion; experiment: Cell growth in YAP1-deleted KMS-20; format: cell-based; details: KMS-20, YAP1 deleted
[3] = MTT viability assay, U266; format: cell-based; details: human, U266 multiple myeloma cells, 10 μM
Method: (§2) Viability of MM cells was evaluated by 3-[4,5-dimethylthiazol-2-yl]-2,5-diphenyltetrazolium bromide (MTT) colorimetric survival assay. MM cells (20,000-50,000) were plated in 100 μL medium. At the various time points (24-96 hours), 10 μL 5 mg/mL MTT were added to plated cells. After 4 hour incubation at 37° C., medium was discarded and 100 μL MTT stop solution (Isopropanonol with […] Hcl) used to dissolve MTT metabolic products. Absorbance was read at 570 nm and background was subtracted at 630 nm, using spectrophotometer SPECTRAMAX M2 machine and Softmax Pro v5 software. Cellular growth was estimated by cell counting in triplicates, excluding dead cells stained by trypan blue.

U266 MM cell line = experiment: Apoptosis by Annexin V-FITC/PI staining, U266; format: cell-based; details: 10 μM, untreated 10%
Method: (§3) In particular, cells were washed twice with room-temperature PBS, resuspended in 100 μL of Annexin binding buffer, and stained with specific antibodies for 20 minutes.

RL = experiment: MTT / Annexin V-PI, RL; format: cell-based; details: no nuclear ABL1
MM.1S cells [4] = experiment: Apoptosis by Annexin V-FITC/PI staining, MM.1S; format: cell-based, human; details: 10 μM, untreated 11%
Method: as §3

HL-60 = experiment: MTT / Annexin V-PI, HL-60; format: cell-based; details: HL-60, YAP1 basal expression
[5] = tested on: leukemia and lymphoma cell lines; experiment: MTT growth inhibition and Annexin V-PI apoptosis in a leukemia and lymphoma cell line panel; format: cell-based; details: cell lines where the DNA damage-ABL1-YAP1 axis was activated
U266 cell line = experiment: MTT viability assay, U266; format: cell-based; details: Homo sapiens, U-266, 48 h, doxorubicin 40 nM with imatinib 10 μM, 48 h, doxorubicin alone 52.8%
Method: as §2

MM.1S cells [6] = experiment: MTT viability assay, MM.1S; format: cell-based, human; details: MM.1S YAP1-transfected; imatinib 10 μM from day 0
Method: as §2

KMS-20 cells = experiment: MTT viability assay, KMS-20; format: cell-based; details: KMS-20 YAP1-transfected; imatinib 10 μM from day 0
Method: as §2

[7] = MTT viability assay, KMS-20; format: cell-based; details: human, KMS-20 multiple myeloma cells, LACZ-transfected; read-out: 48 hour viability (MTT, normalized to LACZ+DMSO)
Method: as §2

[8] = tested on: KMS-20 cells transfected with pLENTI4-YAP1-EGFP; experiment: Apoptosis by Annexin V-PE/7AAD on GFP-positive YAP1-transfected cells; format: cell-based; details: YAP1 reintroduced; with imatinib 10 μM
Method: Cellular counting was performed in triplicate for each condition, with trypan blue exclusion. Right panel: Apoptosis by Annexin V-PE/7AAD, gating on GFP-positive cells. The percentage of viable cells (Annexin V-PE-/7AAD-cells) is shown at 48 hours.
p-ENTR-YAP1-EGFP plasmid was kindly provided by Dr. Marius Sudol and subcloned into pLENTI4-V5DEST vector using GATEWAY strategy. p-LENTI4-LACZ vector was used as control. KMS-18, KMS-20, MM.1S, RPMI-8226 and UTMC-2 cells (5,000,000) cells were transiently transfected with p-LENTI4 YAP1, using ‘Cell Line Nucleofector Kit V (Amaxa Biosystems, Köln, Germany), according to the manufacturer's instructions. AMAXA program: MM.1S→T-030; RPMI-8226→C-015; KMS-18, KMS-20 and UTMC-2→X-001. Specifically, 5×10^6 cells were resuspended in 100 μL V solution and 2500 ng of plasmid. Following transfection, MM cells were subjected to mRNA analysis, Western blotting, as well as apoptosis, cell counting, and MTT assays.
In particular, cells were washed twice with room-temperature PBS, resuspended in 100 μL of Annexin binding buffer, and stained with specific antibodies for 20 minutes. After adding other […] of Annexin binding buffer, samples were acquired using FACS Canto II machine from Becton Dickinson, BD, and analyzed with FCS EXPRESS 4 Flow Research Edition software.

YAP1, p73 = experiment: Western blot of YAP1, p73 and p73 targets in MM.1S and U266; format: cell-based; details: doxorubicin 40 nM with imatinib 10 μM
Method: as §1

MM.1S MM cells = experiment: MM.1S xenograft mouse model with inducible STK4 knockdown; format: in vivo, Fox Chase SCID mice; details: subcutaneous, 6 weeks; scrambled shRNA tumors 1965 mm^3
Method: A genetic approach conditionally knocking down STK4 in MM.1S cells was performed. In this study, MM.1S MM cells were infected with either inducible scrambled shRNAs, or inducible pLKO.1-TET shRNA #4 and pTRIPZ 63 directed against STK4 and then injected subcutaneously into three sites (left and right flank and interscapular region) in a group of 12 Fox Chase SCID mice.

## NS(=O)(=O)c1ccc(N/N=C2\C(=O)Nc3ccc4ncccc4c32)cc1 [GW305178X]
STK4
  IC50: 0.012 µM
MM cell lines
  effect on cell growth / proliferation in MM cell lines: reduced proliferation in most cell lines with low YAP1 levels
YAP1; MM cells
  YAP1 levels after treatment: robust increase in YAP1 levels
[1]
  YAP1 levels, cell number and apoptosis: increased YAP1 levels, reduced cell number, and enhanced apoptosis
[2]
  activity against KMS-20: not active

## COc1cc(Nc2c(C#N)cnc3cc(OCCCN4CCN(C)CC4)c(OC)cc23)c(Cl)cc1Cl [SKI-606]
[3]; 24 h, read-out: 24 hour viability (MTT, normalized to DMSO)
  viability at 24 h, 10 µM: 93.8%
[3]; 48 h, read-out: 48 hour viability (MTT, normalized to DMSO)
  viability at 48 h, 10 µM: 76.1%
[3]; 72 h, read-out: 72 hour viability (MTT, normalized to DMSO)
  viability at 72 h, 10 µM: 53.8%
[3]; 96 h, read-out: 96 hour viability (MTT, normalized to DMSO)
  viability at 96 h, 10 µM: 28.5%
YAP1; MM.1S and U266, 10 μM
  YAP1 expression after treatment: significant increase of YAP1 expression
U266 MM cell line
  apoptosis (Annexin V-PI): 58%
RL
  response to treatment: did not respond to the treatment
MM.1S cells [4]
  apoptosis (Annexin V-FITC/PI): 76%
HL-60
  response to treatment: did not respond to the treatment
[5]
  cellular proliferation and survival: profoundly reduced

## Cc1ccc(NC(=O)c2ccc(CN3CCN(C)CC3)cc2)cc1Nc1nccc(-c2cccnc2)n1 [imatinib]
U266 cell line
  viability at 10 µM: 78.5%
MM.1S cells [6]
  48 hour viability (MTT, normalized to LACZ+DMSO): 86.1%±20.6
KMS-20 cells
  48 hour viability (MTT, normalized to LACZ+DMSO): 96.7%+8.9
[7]
  viability at 48 h, 10 µM: 103%
[8]
  apoptotic cells after reintroduction of YAP1: 9.1%
YAP1, p73
  YAP1, p73 and p73-target expression triggered by DNA-damaging agents: stifled the increase in YAP1, p73 and p73-target expression

## pLKO.1-TET shRNA #4: inducible shRNA directed against STK4; clone #4 target sequence GCCAAGCGGAATACAGTGATA (the letters are possibly those of the target site)
MM.1S MM cells
  xenograft tumor growth: no growth was evident
